From PMC8280112, “Substrate reduction therapy for Krabbe disease and metachromatic leukodystrophy using a novel ceramide galactosyltransferase inhibitor” (Scientific Reports, 2021)

Key:
[1] = molecular target: T1, Cerebroside sulfotransferase (CST) (Homo sapiens, UniProt Q99999); test: Cerebroside sulfotransferase assay; assay type: biochemical; settings: lysate of CHO cells expressing GAL3ST1
T1 construct: made in house; host or cells: CHO cells stably expressing GAL3ST1 cDNA; MPER lysate
T1 sequence (Q99999 1-423): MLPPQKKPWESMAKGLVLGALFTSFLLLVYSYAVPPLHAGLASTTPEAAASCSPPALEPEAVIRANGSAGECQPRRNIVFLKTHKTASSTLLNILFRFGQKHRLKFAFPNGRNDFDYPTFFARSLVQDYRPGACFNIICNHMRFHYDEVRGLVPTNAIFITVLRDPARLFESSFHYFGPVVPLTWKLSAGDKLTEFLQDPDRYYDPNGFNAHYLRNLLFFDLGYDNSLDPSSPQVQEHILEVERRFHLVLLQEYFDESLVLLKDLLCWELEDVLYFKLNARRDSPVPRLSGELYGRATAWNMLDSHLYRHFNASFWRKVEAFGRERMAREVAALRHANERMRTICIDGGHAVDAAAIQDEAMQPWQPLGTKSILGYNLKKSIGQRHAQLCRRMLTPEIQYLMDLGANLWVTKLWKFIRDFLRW
Protocol: A 50 µL reaction consisting of 4 µg MPER lysate prepared from CHO cells stably expressing GAL3ST1 cDNA construct (made by BioMarin), 3 µM N-dodecanoyl-NBD-galactosylceramide […] 10 µM PAPS (Sigma) added as substrate (in DMSO/Tween 80), reaction buffer (100 mM Tris/HCl (pH 7.0), 2.5 mM ATP, 20 mM MgCl2), and test compound. The reaction was incubated at 37 ℃ for 2 h then stopped with 100 µL of 3:1 methanol:acetonitrile (containing 500 nM NBD-C6-OH ceramide as an IS). After 1 h shaking, 150 µL 1:2 H2O:ACN was added, mixed, and centrifuged 4000 rpm for 30 min at RT. Supernatant was transferred for LC–MS analysis using the same conditions used for the CGT cellular assay.

[2] = Mouse pharmacokinetics and brain concentration; assay type: in vivo; settings: C57BL/6 mice, single 20 mg/kg IP injection, plasma
Protocol: Blood was collected in K2 EDTA tube to obtain a plasma sample (2000g, 5 min at 4 °C). The brain was removed, rinsed with cold saline, dried on filter paper, weighed, and snap frozen by placing on dry ice. Brains were homogenized in 3 volumes of PBS (pH 7.4) by mini-bead-beater before sample extraction for bioanalysis. […] Pharmacokinetic parameters were calculated using WinNonlin V 8.2 statistics software (Pharsight Corporation).

Twitcher mice = test: Twitcher mouse survival; assay type: in vivo; settings: for median survival: IP three times per week
Protocol: Mice heterozygous for the Twitcher mutation on the congenic C57BL/6 background were originally purchased from The Jackson Laboratories (stock #000845). Homozygous GALC −/− animals were generated from heterozygous mating. Genotypes were determined on PND1 by PCR as previously described[43],[44]. Animals that died prior to weaning on PND28 were excluded from the study unless otherwise noted. Animals were euthanized when they became moribund as defined by any of the following: losing 25% of their maximal body weight, ataxia severe enough to impair ability to eat or drink, or lack of response to tactile stimulus. Animals used for tissue collection were euthanized by anesthetic overdose and perfused transcardially with PBS for three min. Animals for lifespan analysis were euthanized using CO2 compressed gas delivered at 10–30% chamber volume displacement per min. […] Tissues were harvested and flash frozen in liquid nitrogen.

[3] = test system: sulfatide and lysosulfatide levels; test: ARSA knockout (MLD) mouse brain sulfatide and lysosulfatide analysis; assay type: in vivo; settings: MLD (ARSA knockout) mice, IP three times per week
Protocol: ARSA mice were obtained from Volkmar Gieselmann, University of Bonn. ARSA −/− mice were generated from heterozygous pairing and confirmed by PCR genotyping. […] Animals were euthanized by exsanguination under deep anesthesia and brain and sciatic nerve removed, rinsed in cold saline, dried, and snap frozen for lipid quantification.
Previously diluted brain homogenate was serially diluted (10 µL into 90 µL and then 20 µL into 80 µL) in ACN/H2O (v/v 1:1) before being added to 300 µL ACN with IS (N-C18:0-CD3-sulfatide, Matreya). The mixture was vortexed for 10 min, centrifuged at 5800 rpm for 10 min, and then 3 µL of supernatant was injected for LC–MS/MS analysis. Sulfatides were separated on an ACE 5 C18 (2.1 × 50 mm, 5 µm) column (0.6 mL/min flow rate) at 60 °C using mobile phase A (H2O-5 mM NH4OAc) and mobile phase B (ACN). Non-hydroxy-sulfatide and 2-hydroxy-sulfatide were detected using MRM on a UPLC-MS/MS-22 (Triple Quad 6500) in positive ESI mode. Total sulfatides (Matreya) were used as reference standards. The non-hydroxy-sulfatide or 2-hydroxy-sulfatide species identified in the reference standards were each summed and normalized relative to the vehicle treated animals.
Sulfatides were quantified using the methods described above. For lysosulfatide, 30 µL of brain homogenates were added to 200 µL ACN with IS (N-acetylsulfatide, Matreya), vortexed for 10 min, and centrifuged at 5800 rpm for 10 min. 3 µL of supernatant was injected for LC–MS/MS analysis. UPLC–MS/MS methods were the same used for sulfatides described above except lysosulfatide (Matreya) was used as a reference standard.

For `C[C@H]1N(c2ccc(Br)cc2)C(=O)N(c2ccc(Br)cc2)C1(O)c1cccc(OC(F)(F)F)c1` (stereo partly drawn) [S202], the IC50 [1] was > 50 µM, the AUC(0-inf) [2] was 83800 ng·h/mL and the AUC(0-t) [2] was 59400 ng·h/mL. For the same compound, the Cmax [2] was 8500 ng/mL, the Tmax [2] was 1 h and the half-life ([2]; read-out: Terminal t1/2 (converted)) was 12.2 h. The median survival (Twitcher mice; PND3 start, 0.15 mg/kg) was 60 days, the median survival (Twitcher mice; PND15 start, 5.0 mg/kg) was ~ 63 days and the effect on lifespan (Twitcher mice; PND3 start, highest dose tested (1.5 mg/kg)) was “reduced lifespan”. For the same compound, the 2-hydroxy-sulfatides in brain ([3]; higher doses) was “reduced”, the lysosulfatide in brain ([3]; lower doses) was “reduction” and the non-hydroxy-sulfatide in brain ([3]; lower doses) was “reduction”.
